Source: patent US20260008758A1, “LINEAR DIPEPTIDYL PEPTIDASE 1 INHIBITORS AND USES THEREOF” (Insmed Incorporated, priority 2024, published 2026)
pIC50: −log10 of the molar value.

How the values were obtained:
active mouse DPP1 enzyme = active mouse DPP1 enzyme (Mus musculus (Mouse), UniProt P97821); experiment: Mouse DPP1 enzyme IC50 assay; type: biochemical; details: active mouse DPP1, H-Gly-Arg-AMC substrate 400 μM
Method: 25 μL of compound in Assay Buffer plus 5% DMSO was first added to 50 μL of active mouse DPP1 enzyme at a concentration of 62.5 pg/μL and allowed to pre-incubate for 10 minutes at 37° C. after which 50 μL of 1000 μM H-Gly-Arg-AMC substrate (Bachem; St. Torrance, CA) was added, giving final substrate concentration of 400 μM and a final DMSO concentration of 1%. Substrate cleavage was measured for 90 minutes at 37° C., with fluorescence at Excitation/Emission 350/450 nm measured every 5 minutes. DPP1 concentration was interpolated based on its activity relative to a standard curve of recombinant active mouse DPP1 enzyme. IC50 values for each compound were calculated via the XLFit (IDBS Version 5.3.1.3) Add-On to Microsoft Excel using the four parameter fit equation y=(A+((B-A)/(1+((C/x)^D)))), which appears as equation number 205 (4 Parameter Logistic Model or Sigmoidal Dose-Response Model) in XLFit. Default constraints were used for each Parameter.

human DPP1 enzyme = human DPP1 enzyme (Homo sapiens (Human), UniProt P53634); experiment: Human DPP1 enzyme IC50 assay; type: biochemical; details: recombinant human DPP1, H-Gly-Arg-AMC substrate 400 μM
Sequence of human DPP1 enzyme (P53634 25-134): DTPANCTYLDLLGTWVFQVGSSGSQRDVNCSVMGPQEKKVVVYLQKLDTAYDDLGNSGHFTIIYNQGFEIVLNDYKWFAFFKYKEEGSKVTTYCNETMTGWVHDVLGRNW
Sequence of human DPP1 enzyme (P53634 231-394): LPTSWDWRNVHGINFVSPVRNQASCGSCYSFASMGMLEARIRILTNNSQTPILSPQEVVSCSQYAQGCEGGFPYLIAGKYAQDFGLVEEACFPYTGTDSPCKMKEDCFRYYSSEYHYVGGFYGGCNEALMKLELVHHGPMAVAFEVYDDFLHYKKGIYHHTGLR
Sequence of human DPP1 enzyme (P53634 395-463): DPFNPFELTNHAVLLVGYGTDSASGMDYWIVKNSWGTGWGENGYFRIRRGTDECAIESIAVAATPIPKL
Outline: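 Fluorogenic readout (350/450 nm, every 5 min over 90 min, 37°C) of H-Gly-Arg-AMC cleavage at 400 μM final substrate. Compounds met activated DPP1 first for a 10-min 37°C pre-incubation in MES buffer pH 6.0 with DTT, 1% DMSO final. Four-parameter sigmoidal fit gave IC50.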

DPP1 in HL-60 cells = DPP1 in HL-60 cells (Homo sapiens (Human), UniProt P53634); experiment: DPP1 Cell IC50 assay; type: cell-based; details: H-Gly-Phe-AFC substrate, 60 min pre-incubation
Sequence of DPP1 in HL-60 cells (P53634 25-134): as the sequence (P53634 25-134) above
Sequence of DPP1 in HL-60 cells (P53634 231-394): as the sequence (P53634 231-394) above
Sequence of DPP1 in HL-60 cells (P53634 395-463): as the sequence (P53634 395-463) above
Method: Media was changed every three to four days and cells were not allowed to exceed 1×10^6 cells per mL. Prior to assay, cells were collected by centrifugation at 500 rcf for 3 minutes, resuspended in PBS and counted. Cells were diluted in PBS to a concentration of 5×10^5 live cells per mL and transferred to black 96-well plates for assay, 60 μL per well. Test articles were diluted in PBS plus 0.5% DMSO, and 20 μL was added to each assay well. Compound was allowed to pre-incubate with cells with gentle shaking at 100 rpm for 60 minutes at 37° C. in a cell culture incubator maintained at 5% CO2, after which 20 μL of 500 μM H-Gly-Phe-AFC substrate (MP Biomedicals; Solon, OH) was added to each well. Plates were returned to the incubator with shaking at 100 rpm for 30 minutes, after which fluorescence was measured at Excitation/Emission 400/505 nm. % Inhibition was calculated from RFU values compared to control cell wells that received only PBS plus 0.5% DMSO. IC50 values for each compound were calculated via the XLFit (IDBS Version 5.3.1.3) Add-On to Microsoft Excel using the four parameter fit equation y=(A+((B-A)/(1+((C/x)^D)))), which appears as equation number 205 (4 Parameter Logistic Model or Sigmoidal Dose-Response Model) in XLFit.

Sequence of active mouse DPP1 enzyme (P97821 25-134): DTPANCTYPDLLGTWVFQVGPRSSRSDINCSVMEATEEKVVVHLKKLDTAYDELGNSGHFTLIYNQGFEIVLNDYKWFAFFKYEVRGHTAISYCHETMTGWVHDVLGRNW
Sequence of active mouse DPP1 enzyme (P97821 231-393): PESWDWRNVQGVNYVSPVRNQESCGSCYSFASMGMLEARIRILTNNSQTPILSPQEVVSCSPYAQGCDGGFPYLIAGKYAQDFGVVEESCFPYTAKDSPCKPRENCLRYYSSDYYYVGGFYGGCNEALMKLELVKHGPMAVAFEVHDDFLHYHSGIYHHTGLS
Sequence of active mouse DPP1 enzyme (P97821 394-462): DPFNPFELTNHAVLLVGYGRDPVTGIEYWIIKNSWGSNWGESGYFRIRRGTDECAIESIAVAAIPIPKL

SMILES	IC50 (active mouse DPP1 enzyme)	IC50 (human DPP1 enzyme)	pIC50 (DPP1 in HL-60 cells)
CN[C@H](C)C(=O)N[C@H](C#N)Cc1ccc(-c2ccc3oc(=O)n(C)c3c2)cc1 [Compound 152, (R)—N—((S)-1-cyano-2-(4-(3-methyl-2-oxo-2,3-dihydrobenzo[d]oxazol-5-yl)phenyl)ethyl)-2-(methylamino)propanamide]	≥ 20 nM	≥ 15 nM	–
Cn1c(=O)oc2ccc(-c3ccc(C[C@@H](C#N)NC(=O)CNC(=O)c4cccs4)cc3)cc21 [Compound 239, N-[(1S)-1-cyano-2-[4-(3-methyl-2-oxo-1,3-benzoxazol-5-yl)phenyl]ethyl]-2-(thiophen-2-ylformamido)acetamide]	≥ 20 nM	–	–
Cn1c(=O)oc2ccc(-c3ccc(C[C@@H](C#N)NC(=O)CCOC(=O)c4cccs4)cc3)cc21 [Compound 244, 2-{[(1S)-1-cyano-2-[4-(3-methyl-2-oxo-1,3-benzoxazol-5-yl)phenyl]ethyl]carbamoyl}ethyl thiophene-2-carboxylate]	≥ 20 nM	–	–
Cn1c(=O)oc2ccc(-c3ccc(C[C@@H](C#N)NC(=O)COC(=O)c4cccs4)cc3)cc21 [Compound 245, (S)-2-((1-cyano-2-(4-(3-methyl-2-oxo-2,3-dihydrobenzo[d]oxazol-5-yl)phenyl)ethyl)amino)-2-oxoethyl thiophene-2-carboxylate]	≥ 20 nM	–	–
CCCCOCCn1c(=O)oc2ccc(-c3ccc(C[C@@H](C#N)NC(=O)C(C)(N)C4CCC4)c(F)c3)cc21 (stereo partly drawn) [Compound 267, 2-amino-N-[(1S)-2-{4-[3-(2-butoxyethyl)-2-oxo-1,3-benzoxazol-5-yl]-2-fluorophenyl}-1-cyanoethyl]-2-cyclobutylpropanamide]	–	≤ 5 nM	≤ 8.60
CN(C)CCn1c(=O)oc2ccc(-c3ccc(C[C@@H](C#N)NC(=O)C(C)(N)C4CCC4)c(F)c3)cc21 (stereo partly drawn) [Compound 268, 2-amino-N-[(1S)-1-cyano-2-(4-{3-[2-(dimethylamino)ethyl]-2-oxo-1,3-benzoxazol-5-yl}-2-fluorophenyl)ethyl]-2-cyclobutylpropanamide]	–	≤ 5 nM	8.60 to 9.00
CN1CCC2(CCc3ccc(-c4ccc(C[C@@H](C#N)NC(=O)C(C)(N)C5CCC5)c(F)c4)cc32)CC1 (stereo partly drawn) [Compound 269, 2-amino-N—((S)-1-cyano-2-(2-fluoro-4-(1′-methyl-2,3-dihydrospiro[indene-1,4′-piperidin]-6-yl)phenyl)ethyl)-2-cyclobutylpropanamide]	–	≤ 5 nM	≤ 8.60
COCCN(C)CCn1c(=O)oc2ccc(-c3ccc(C[C@@H](C#N)NC(=O)[C@@](C)(N)C4CCC4)c(F)c3)cc21 [Compound 270A, (2S)-2-amino-N-[(1S)-1-cyano-2-[2-fluoro-4-(3-{2-[(2-methoxyethyl)(methyl)amino]ethyl}-2-oxo-1,3-benzoxazol-5-yl)phenyl]ethyl]-2-cyclobutylpropanamide]	–	≥ 15 nM	≤ 8.60
COCCN(C)CCn1c(=O)oc2ccc(-c3ccc(C[C@@H](C#N)NC(=O)[C@](C)(N)C4CCC4)c(F)c3)cc21 [Compound 270B, (2R)-2-amino-N-[(1S)-1-cyano-2-[2-fluoro-4-(3-{2-[(2-methoxyethyl)(methyl)amino]ethyl}-2-oxo-1,3-benzoxazol-5-yl)phenyl]ethyl]-2-cyclobutylpropanamide]	–	≤ 5 nM	8.60 to 9.00
Cc1cn2cc(-c3ccc(C[C@@H](C#N)NC(=O)[C@@](C)(N)C4CCC4)c(F)c3)cc2c(C)n1 [Compound 272B, (S)-2-amino-N—((S)-1-cyano-2-(4-(1,3-dimethylpyrrolo[1,2-a]pyrazin-7-yl)-2-fluorophenyl)ethyl)-2-cyclobutylpropanamide]	–	5 to 15 nM	8.60 to 9.00
Cn1c(=O)oc2ccc(-c3ccc(C[C@@H](C#N)NC(=O)C4(N)CCCC45CC5)c(F)c3)cc21 (stereo partly drawn) [Compound 273B, (4R)-4-amino-N-[(1S)-1-cyano-2-[2-fluoro-4-(3-methyl-2-oxo-1,3-benzoxazol-5-yl)phenyl]ethyl]spiro[2.4]heptane-4-carboxamide]	–	≤ 5 nM	≥ 9.00
CN(C)C[C@H](O)C(=O)N[C@H](C#N)Cc1ccc(-c2ccc3c(n2)CCCN3)cc1F [Compound 276, (2S)—N-[(1S)-1-cyano-2-[2-fluoro-4-(5,6,7,8-tetrahydro-1,5-naphthyridin-2-yl)phenyl]ethyl]-3-(dimethylamino)-2-hydroxypropanamide]	–	≥ 15 nM	≤ 8.60
CN(C)C[C@H](O)C(=O)N[C@H](C#N)Cc1cc2c(cc1F)-c1ccc(C#N)cc1CO2 [Compound 277A, (2S)—N-[(1S)-1-cyano-2-{8-cyano-2-fluoro-6H-benzo[c]chromen-3-yl}ethyl]-3-(dimethylamino)-2-hydroxypropanamide]	–	≥ 15 nM	≤ 8.60
CN(C)C[C@H](F)C(=O)N[C@H](C#N)Cc1ccc(-c2ccc3oc(=O)n(C)c3c2)cc1F [Compound 278, (2S)—N-[(1S)-1-cyano-2-[2-fluoro-4-(3-methyl-2-oxo-1,3-benzoxazol-5-yl)phenyl]ethyl]-3-(dimethylamino)-2-fluoropropanamide]	–	≥ 15 nM	≤ 8.60
CN(C)C[C@H](O)C(=O)N[C@H](C#N)Cc1ccc(-c2ccc3c(c2)C(C2CCN(C4COC4)CC2)OC3)cc1 (stereo partly drawn) [Compound 281, (2S)—N-[(1S)-1-cyano-2-(4-{3-[1-(oxetan-3-yl)piperidin-4-yl]-1,3-dihydro-2-benzofuran-5-yl}phenyl)ethyl]-3-(dimethylamino)-2-hydroxypropanamide]	–	≥ 15 nM	≤ 8.60
CN(C)C[C@H](O)C(=O)N[C@H](C#N)Cc1ccc(-c2ccc3cnn(C4CCN(C5COC5)CC4)c3c2)cc1 [Compound 282, (2S)—N-[(1S)-1-cyano-2-(4-{1-[1-(oxetan-3-yl)piperidin-4-yl]indazol-6-yl}phenyl)ethyl]-3-(dimethylamino)-2-hydroxypropanamide]	–	≥ 15 nM	≤ 8.60
CN(C)C[C@H](O)C(=O)N[C@H](C#N)Cc1ccc(-c2ccc3c(c2)C2(CCN(C4COC4)CC2)OC3)cc1F [Compound 283, (2S)—N-[(1S)-1-cyano-2-{2-fluoro-4-[1′-(oxetan-3-yl)-3H-spiro[2-benzofuran-1,4′-piperidin]-6-yl]phenyl}ethyl]-3-(dimethylamino)-2-hydroxypropanamide]	–	5 to 15 nM	≤ 8.60
CO[C@@H](CN(C)C)C(=O)N[C@H](C#N)Cc1ccc(-c2ccc3c(c2)C2(CCN(C4COC4)CC2)OC3)cc1F [Compound 284, (2S)—N-[(1S)-1-cyano-2-{2-fluoro-4-[1′-(oxetan-3-yl)-3H-spiro[2-benzofuran-1,4′-piperidin]-6-yl]phenyl}ethyl]-3-(dimethylamino)-2-methoxypropanamide]	–	5 to 15 nM	≤ 8.60
CN(C)C[C@H](O)C(=O)N[C@H](C#N)Cc1ccc(-c2ccc3cnn(C4CCN(C)CC4)c3c2)cc1F [Compound 285, (S)—N—((S)-1-cyano-2-(2-fluoro-4-(1-(1-methylpiperidin-4-yl)-1H-indazol-6-yl)phenyl)ethyl)-3-(dimethylamino)-2-hydroxypropanamide]	–	5 to 15 nM	≤ 8.60
CO[C@@H](CN(C)C)C(=O)N[C@H](C#N)Cc1ccc(-c2ccc3cnn(C4CCN(C)CC4)c3c2)cc1F [Compound 286, (S)—N—((S)-1-cyano-2-(2-fluoro-4-(1-(1-methylpiperidin-4-yl)-1H-indazol-6-yl)phenyl)ethyl)-3-(dimethylamino)-2-methoxypropanamide]	–	5 to 15 nM	≤ 8.60
CN(C)C[C@H](O)C(=O)N[C@H](C#N)Cc1ccc(-c2ccc3cnn(C4CCN(C5COC5)CC4)c3c2)cc1F [Compound 287, (2S)—N-[(1S)-1-cyano-2-(2-fluoro-4-{1-[1-(oxetan-3-yl)piperidin-4-yl]indazol-6-yl}phenyl)ethyl]-3-(dimethylamino)-2-hydroxypropanamide]	–	5 to 15 nM	≤ 8.60
CO[C@@H](CN(C)C)C(=O)N[C@H](C#N)Cc1ccc(-c2ccc3cnn(C4CCN(C5COC5)CC4)c3c2)cc1F [Compound 288, (2S)—N-[(1S)-1-cyano-2-(2-fluoro-4-{1-[1-(oxetan-3-yl)piperidin-4-yl]indazol-6-yl}phenyl)ethyl]-3-(dimethylamino)-2-methoxypropanamide]	–	5 to 15 nM	8.60 to 9.00
